The record followed here is ChEMBL document CHEMBL1122790, “Novel opiates and antagonists. 6. 7-Alkyl-6,7-didehydromorphinans” (1984).

As a reminder, the ED50 is the dose that gives a 50% effect, or the effect in half of the subjects.

Assay [1] concerns Rattus norvegicus. Kind of assay: Compound was evaluated for its analgesic activity by Rat-tail-flick test after subcutaneous administration at a dose 10 mg/kg; Ia= inactive. Type of assay: functional, organism-based. More on the design: dose 10 mg/kg. A general note: Thermal pain tests record how soon the animal reacts.
The subject of assay [2] is Mus musculus. Kind of assay: Compound was evaluated for its analgesic activity by mouse acetic acid writhing test after subcutaneous administration at a dose 10 mg/kg; Ia= inactive. Type of assay: functional, organism-based. Further details: dose 10 mg/kg. A general note: In writhing tests, fewer writhes than in controls are read as antinociception.
In assay [3] the test system is Mus musculus. Kind of assay: Analgesic activity in the mouse acetic acid writhing test following s.c. administration. The settings on record: sc. Type of assay: functional.
The subject of assay [4] is Rattus norvegicus. Briefly: Compound was evaluated for its analgesic activity by Rat-tail-flick test after subcutaneous administration. Type of assay: functional. The settings on record: for ED50: sc.
Assay [5] deals with Mus musculus. Briefly: Compound was evaluated for its analgesic activity by mouse acetic acid writhing test after subcutaneous administration at a dose 10 mg/kg. It is filed as functional. The settings on record: sc.

Calls of active or inactive are those of the source. The calls are words filed in the database; no cut-off is given here. Bounds are passed on as bounds.

With `COc1ccc2c3c1OC1C=C(C(C)O)CC4C(C2)N(C)CCC314` (stereo not drawn), the ED50 entry in the assay on Rattus norvegicus [1] and in the assay on Mus musculus [2] was “inactive” each time.
For the molecule `COc1ccc2c3c1OC1C=C(C=O)CC4C(C2)N(C)CCC314` (stereo not drawn), in the assay on Rattus norvegicus [1], the ED50 entry is “inactive”. In addition, the 50% effect level with Mus musculus [3] (ED50) was put at a dose of 1.45 mg/kg.
In the case of `CCCC[C@@H](O)C1=CCC23CCN(C)C(Cc4ccc(OC)cc42)[C@H]3C1` (stereo partly drawn), the ED50 in the assay on Mus musculus [3] is 0.0062 mg/kg; in the assay with Rattus norvegicus [4], 1.8 mg/kg.
With `CCCCC(C)(O)C1=CCC23CCN(C)C(Cc4ccc(OC)cc42)[C@H]3C1` (stereo partly drawn), the ED50 in the assay on Mus musculus [3] amounted to 0.0125 mg/kg; in the assay on Rattus norvegicus [4], 3.2 mg/kg.
Regarding `CCCCC(C)(O)C1=CCC23CCN(C)C(Cc4ccc(O)cc42)C3C1` (stereo not drawn), the ED50 result in the assay with Mus musculus [2] was “inactive”.
On to `CCCCC(=O)C1=CC2Oc3c(OC)ccc4c3C23CCN(C)C(C4)C3C1.Cl` (stereo not drawn), for which the ED50 entry in the assay with Mus musculus [2] was “inactive”. The same molecule returned an ED50 in the assay on Rattus norvegicus [4] of over 10 mg/kg.
For the molecule `COc1ccc2c3c1OC1C(=O)/C(=C/N(C)C)CC4C(C2)N(C)CCC314` (stereo not drawn), the ED50 result with Rattus norvegicus [1] and with Mus musculus [2] was “inactive” throughout.
For the molecule `CCCCS/C=C1\CC2C3Cc4ccc(OC)c5c4C2(CCN3C)C(O5)C1=O` (stereo not drawn), the ED50 in the assay on Mus musculus [3] and in the assay with Rattus norvegicus [4] was over 10 mg/kg throughout.
In the assay on Mus musculus [3], `CN1CC[C@]23c4c5ccc(O)c4O[C@H]2C(=O)CC[C@H]3[C@H]1C5.Cl` [HYDROMORPHONE HYDROCHLORIDE] gave an ED50 of 0.08 mg/kg.
Same read-out and setting: the value for `CCCCC(=O)C1=CCC23CCN(C)C(Cc4ccc(OC)cc42)[C@H]3C1.Cl` (stereo partly drawn) was 0.82 mg/kg.
In the assay with Mus musculus [3], `CCCCC(O)C1=CC2Oc3c(OC)ccc4c3C23CCN(C)C(C4)C3(O)C1.Cl` (stereo not drawn) showed an ED50 of 9.8 mg/kg.
The same measure, in the same setting: with `COc1ccc2c3c1O[C@H]1C(=O)CC[C@@]4(O)[C@@H](C2)N(C)CC[C@]314.Cl` [OXYCODONE HYDROCHLORIDE] the figure was 0.3 mg/kg.
As for `COc1ccc2c(c1)C13CC=C(C=O)C[C@@H]1C(C2)N(C)CC3` (stereo partly drawn) [listing 1 of 2 here], in the assay with Rattus norvegicus [1], the ED50 result is “inactive”.
With `COc1ccc2c(c1)C13CC=C(C=O)C[C@@H]1C(C2)N(C)CC3` (stereo partly drawn) [listing 2 of 2 here], it took a dose of 0.28 mg/kg to reach the 50% effect level in the assay on Mus musculus [3] (ED50).
In turn, `COc1ccc2c3c1OC1C=C([C@@H](O)CCCc4ccccc4)CC4C(C2)N(C)CCC314` (stereo partly drawn) showed an ED50 with Mus musculus [3] of 1.6 mg/kg.
With `CCCCC(=O)C1=CCC23CCN(C)C(Cc4ccc(O)cc42)[C@H]3C1` (stereo partly drawn), the results for the ED50 in the assay with Mus musculus [3] and in the assay with Rattus norvegicus [4] were 0.046 mg/kg and 0.0135 mg/kg, respectively.
As for `CCCCC(O)C1=CCC23CCN(CC4CC4)C(Cc4ccc(OC)cc42)[C@H]3C1` (stereo partly drawn), in the assay with Mus musculus [3], the ED50 stood at 0.21 mg/kg.
For `CN1CC[C@]23c4c5ccc(O)c4O[C@H]2[C@@H](O)C=C[C@H]3[C@H]1C5.CN1CC[C@]23c4c5ccc(O)c4O[C@H]2[C@@H](O)C=C[C@H]3[C@H]1C5.O=S(=O)(O)O`, the ED50 in the assay with Mus musculus [3] amounted to 0.79 mg/kg; in the assay on Rattus norvegicus [4] it was 7.32 mg/kg.
For the molecule `CCCCC(O)C1=CCC23CCN(C)C(Cc4ccc(OC)cc42)[C@@H]3C1` (stereo partly drawn), the ED50 entry in the assay with Mus musculus [2] was “inactive”.
As for `CC(=O)C1=CCC23CCN(C)C(Cc4ccc(O)cc42)C3C1` (stereo not drawn), the ED50 with Mus musculus [3] and in the assay with Rattus norvegicus [4] was over 10 mg/kg in each case.
Take `CCCC[C@H](O)C1=CCC23CCN(C)C(Cc4ccc(OC)cc42)[C@H]3C1` (stereo partly drawn): the ED50 with Mus musculus [3] worked out at 0.0058 mg/kg; in the assay with Rattus norvegicus [4] it was 0.3 mg/kg.
For the molecule `COc1ccc2c3c1O[C@H]1C(=O)CC[C@H]4[C@@H](C2)N(C)CC[C@]314.O=C(O)C(O)C(O)C(=O)O`, in the assay with Mus musculus [3], it took a dose of 1.06 mg/kg to reach the 50% effect level (ED50).
Regarding `CCCCNCC1=CC2Oc3c(OC)ccc4c3C23CCN(C)C(C4)C3C1` (stereo not drawn), the ED50 entry in the assay with Mus musculus [2] was “inactive”.
With `CCCCC(O)C1=CC2Oc3c(OC)ccc4c3C23CCN(C)C(C4)C3C1` (stereo not drawn), in the assay with Rattus norvegicus [1], the ED50 entry is “inactive”. In the assay with Mus musculus [3], this molecule came in with an ED50 of 3.13 mg/kg.
For `COc1ccc2c(c1)C13CCN(C)C(C2)[C@H]1CCC(=O)C3` (stereo partly drawn), the ED50 amounted to 0.49 mg/kg in the assay with Mus musculus [3] and 0.66 mg/kg in the assay with Rattus norvegicus [4].
As to `COc1ccc2c3c1OC1C=C([C@H](O)CCCc4ccccc4)CC4C(C2)N(C)CCC314` (stereo partly drawn), the ED50 in the assay with Mus musculus [3] was found to be 0.72 mg/kg.
In the assay on Rattus norvegicus [4], `COc1ccc2c(c1)C13CCN(C)C(C2)C1CCC(=O)C3` (stereo not drawn) registered an ED50 of over 20 mg/kg.
`COc1ccc2c(c1)C13CC=C(C=O)C[C@@H]1C(C2)N(C)CC3.Cl` (stereo partly drawn) registered an ED50 with Mus musculus [5] of 4.55 mg/kg.
As for `COc1ccc2c3c1OC1C=C(C(C)=O)CC4C(C2)N(C)CCC314` (stereo not drawn), the ED50 entry in the assay on Rattus norvegicus [1] and in the assay with Mus musculus [2] was “inactive” each time.
Regarding `COc1ccc2c(c1)C13CCN(CC4CC4)C(C2)[C@H]1CCC(=O)C3` (stereo partly drawn), the ED50 in the assay on Mus musculus [3] was over 10 mg/kg. Moreover, the AD50 in the assay on Rattus norvegicus [4] was 1.3 mg/kg.
On to `CCCCC(C)(O)C1=CCC23CCN(C)C(Cc4ccc(OC)cc42)C3C1` (stereo not drawn), for which the ED50 result with Rattus norvegicus [1] and in the assay on Mus musculus [2] was “inactive” in each case.
In the assay with Mus musculus [3], `COc1ccc2c3c1OC1C=C(C=O)CC4(O)C(C2)N(C)CCC314` (stereo not drawn) returned a median effective dose (ED50) of 3.6 mg/kg.
